The results in this text go back to patent publication US11040976B2, “Substrate selective inhibitors of insulin-degrading enzyme (IDE) and uses thereof” (President and Fellows of Harvard College, priority 2015, dated 2021).

Experiment [1] deals with T1, recombinant human IDE42-1019 (Homo sapiens, UniProt P14735).
T1 construct: recombinant human IDE42-1019 (R&D Systems); purchased R&D Systems
T1 sequence (P14735 42-1019): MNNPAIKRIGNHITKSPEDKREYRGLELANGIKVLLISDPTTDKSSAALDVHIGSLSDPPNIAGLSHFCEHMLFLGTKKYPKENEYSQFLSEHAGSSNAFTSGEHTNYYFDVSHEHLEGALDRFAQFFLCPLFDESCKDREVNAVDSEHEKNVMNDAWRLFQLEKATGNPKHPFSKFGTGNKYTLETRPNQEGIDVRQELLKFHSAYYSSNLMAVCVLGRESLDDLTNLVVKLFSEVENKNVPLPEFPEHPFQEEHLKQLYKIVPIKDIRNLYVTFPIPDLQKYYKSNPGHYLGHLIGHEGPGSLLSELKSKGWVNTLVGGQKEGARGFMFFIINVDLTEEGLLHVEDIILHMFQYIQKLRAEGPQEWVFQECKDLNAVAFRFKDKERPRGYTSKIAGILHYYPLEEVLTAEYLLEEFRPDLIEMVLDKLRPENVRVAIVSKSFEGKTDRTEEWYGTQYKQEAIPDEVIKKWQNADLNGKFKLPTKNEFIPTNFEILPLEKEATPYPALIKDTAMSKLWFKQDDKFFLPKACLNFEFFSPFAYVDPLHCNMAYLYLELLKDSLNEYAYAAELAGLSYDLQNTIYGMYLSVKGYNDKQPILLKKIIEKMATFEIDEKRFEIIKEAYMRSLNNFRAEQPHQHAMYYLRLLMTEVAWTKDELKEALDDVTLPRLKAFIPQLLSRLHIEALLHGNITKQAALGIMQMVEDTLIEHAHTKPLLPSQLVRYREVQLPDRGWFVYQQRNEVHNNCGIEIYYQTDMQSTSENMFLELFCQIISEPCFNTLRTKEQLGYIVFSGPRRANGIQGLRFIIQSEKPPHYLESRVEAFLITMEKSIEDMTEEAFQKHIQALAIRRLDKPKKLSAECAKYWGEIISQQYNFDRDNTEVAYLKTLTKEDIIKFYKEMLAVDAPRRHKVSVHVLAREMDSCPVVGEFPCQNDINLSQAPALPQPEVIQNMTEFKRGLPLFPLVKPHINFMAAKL
In words: Protease assay with fluorogenic peptide substrate Mca-[…](Dnp)-OH. The class given is biochemical. The conditions noted are these: fluorogenic peptide Mca-RPPGFSAFK(Dnp)-OH; for IC50: apparent IC50 for compounds with submaximal inhibition, read-out: IC50 (μM) Proteolysis; for Emax: read-out: Imax (%) Proteolysis (inhibition maximum).

Experiment [2] concerns the target T2, Human N-His6-IDE42-1019 (E. coli expressed) (Homo sapiens, UniProt P14735).
T2 construct: Human N-His6-IDE42-1019 (E. coli expressed); made in house; host or cells: E. coli (Rosetta 2 (DE3) pLysS, plasmid pTrcHis-A)
T2 sequence (P14735 42-1019): T1 sequence (P14735 42-1019)
As to the kind of experiment: Fluorescence anisotropy high-throughput screening assay (displacement of probe FL-6b). It is filed as binding. On the procedure:
The fluorescence anisotropy screening method and probe FL-6b are described in PCT application PCT/US2014/064322, incorporated herein by reference.
Human N-His6-IDE42-1019 (E. coli expressed) was mixed with fluorescein-labeled macrocycle FL-6b:
[drawing 802] in 50 mM Tris buffer pH 8.0, with 1 M NaCl, at 25° C. Optimum signal was obtained using a mixture of […] probe FL-6b and 0.5 μM IDE. The “diversity-oriented (DOS) synthesis informer set” compound plates were pinned onto 384-well plates containing the enzyme-probe mixture (50 μL/well). The azetidine screen was pre-printed on 384-well plates and the enzyme-probe mixture was added (50 μL/well). The final compound concentration was 20 μM. IDE inhibitor 6bK was used as a positive control at a final concentration of 1 μM. After 30 minutes of equilibration, the increase in fluorescence anisotropy was recorded using an EnVision spectrophotometer (excitation 492 nm, emission 523 nm). The fluorescence anisotropy was independently measured twice for each screened compound. The Z-scores for each pair of measurements are plotted in FIG. 1A (DOS informer set) and FIG. 1B (azetidines), and average Z-scores are listed for exemplary compounds in Table E1.
Z-scores were calculated based on the raw anisotropy measured for each well according to Eq. 1, wherein x is the raw anisotropy value of the well, μ is the mean of the anisotropy of the negative control wells (DMSO) for the plate, and σ is the standard deviation in anisotropy of the negative control wells (DMSO) for the plate.
Background: Polarisation of emitted light reports the rotation of a fluorescent probe.

Experiment [3] addresses T3, IDE (R&D), substrate glucagon (Homo sapiens, UniProt P14735).
T3 construct: recombinant human IDE42-1019 (R&D Systems); purchased R&D
T3 sequence (P14735 42-1019): T1 sequence (P14735 42-1019)
In words: HTRF assay for IDE-mediated degradation of glucagon. The class given is biochemical. The conditions noted are these: compounds 67 μM, 0° C. for 10 minutes, versus DMSO alone, FIG. 5. On the procedure: A solution of 0.05 μg/mL IDE (R&D) in “Diluent #5” (CisBio, 24 μL) was transferred to a 200 μL tube strip, and combined with 1 μL of each inhibitor (10 mM in DMSO, or as a 3-fold dilution series). […] This procedure was optimized to result in ˜75% degradation of glucagon. The reaction was terminated by 1 μL of inhibitor Ii1 (5 μM) and chilled on ice. The remaining glucagon was quantified using 10 μL of the quenched enzymatic reaction using the sensitive-range protocol Homogeneous Time-Resolved FRET Glucagon assay (CisBio® 62GLCPEF, see FIG. 3) in 20 μL total volume according to the manufacturer's instructions (384 well-plate Greiner 784904 non-binding). Fluorescence was measured using a Tecan M1000Pro plate reader (excitation=340 nm, emission=665 and 620 nm, lag time=60 μs) according the assay manufacturer's recommendations. Blank wells and glucagon standard curve were included in the assay.
FIG. 4 compares the determined endpoint for insulin degradation with of glucagon degradation for a DMSO control, 6bK at 10 μM, and exemplary compounds of the invention at concentrations of 67 μM.
The HTRF endpoint assay for insulin and glucagon was performed over a range of concentrations for several potential inhibitors and for 6bK.
In general terms: TR-FRET usually uses a lanthanide donor and a delayed reading to cut background.

The mark [4] stands for this setting: final compound concentration 20 μM (6bK control 1 μM), values without asterisk.
The mark [5] stands for this setting: plateau at high inhibitor concentration.
[6] abbreviates: values marked *: from the screen using the diversity-oriented synthesis (DOS) informer set of plates, 20 μM.

A value given as a limit tells only on which side of the number the result lay.

One may read the IC50 as the concentration needed to halve the response being measured.

`Cc1ccccc1-c1ccc([C@H]2[C@H](CO)N3C(=O)CN(C(=O)NC4CCCC4)C[C@@H]23)cc1` [compound 504]: the IC50 in experiment [1] was determined as 0.8 µM. Moreover, the “Average Z-score (Fluorescence anisotropy)” value (shortened to “Average Z-score”) in experiment [2] (setting [4]) is −20.82. Further, the “initial rates of glucagon cleavage” value in experiment [3] is “enhanced”.
With `Cc1ccccc1-c1ccc([C@@H]2[C@@H](CO)N3CCCCN(S(C)(=O)=O)C[C@@H]23)cc1` [compound 591], the half-maximal inhibitory concentration (IC50) in experiment [1] turned out to be 1.5 µM. The Emax in experiment [1] (setting [5]) amounted to 40%. In addition, the “Average Z-score” value in experiment [2] (setting [4]) is given as −17.90. Further, in experiment [3], the “initial rates of glucagon cleavage” value is “enhanced”.
Take `Cc1ccccc1-c1ccc([C@H]2[C@@H](CO)N3CCCCN(C(=O)Nc4ccc(F)cc4)C[C@@H]23)cc1` [compound 226]: the Emax in experiment [1] (setting [5]) worked out at 30%. Further, in experiment [2] (setting [4]), the “Average Z-score” value is −1.67.
Take `COc1ccccc1-c1ccc([C@@H]2[C@@H](C#N)N(C(=O)NC3CCCCC3)[C@@H]2CO)cc1` [D8]: in experiment [1], the half-inhibitory concentration (IC50) worked out at 1 µM. The Emax in experiment [1] (setting [5]) was 40%. The “Average Z-score” value in experiment [2] (setting [4]) was −33.77.
`COc1ccccc1C#Cc1ccc([C@H]2[C@H]3CN(C(=O)C4CCC4)CCCCN3[C@H]2CO)cc1` [compound 141]: the IC50 in experiment [1] was more than 100 µM. The “Average Z-score” value in experiment [2] (setting [6]) is on record as −17.53*.
As to `Cc1cccc(-c2ccc([C@@H]3[C@@H](CO)N4CCCCN(S(=O)(=O)c5cccc(C)c5)C[C@@H]34)cc2)c1` [compound 496], the IC50 in experiment [1] came out at 2.5 µM. In addition, in experiment [1] (setting [5]), the Emax is 30%. Also, the “Average Z-score” value in experiment [2] (setting [4]) is recorded as −9.77.
As to `Cc1ccccc1-c1ccc([C@H]2[C@@H](CO)N3CCCCN(S(C)(=O)=O)C[C@@H]23)cc1` [compound 077], in experiment [1], the IC50 was more than 100 µM. Also, in experiment [2] (setting [4]), the “Average Z-score” value is given as −2.31.
Regarding `COc1ccccc1-c1ccc([C@H]2[C@@H](CO)N3CCCCN(C(=O)c4cccnc4)C[C@H]23)cc1` [compound 983], the IC50 in experiment [1] was more than 20 µM. In experiment [1] (setting [5]), the Emax was determined as 90%. Besides, the “Average Z-score” value in experiment [2] (setting [6]) is listed as −12.81*.
`O=C(C1CCOCC1)N1CC(=O)N2[C@H](CO)[C@H](c3ccc(C#Cc4cccc(F)c4)cc3)[C@H]2C1` [compound 142]: the IC50 in experiment [1] is 6 µM. The Emax in experiment [1] (setting [5]) is approximately 100%. For the same molecule, in experiment [2] (setting [4]), the “Average Z-score” value is reported as −19.27.
On to `Cc1cccc(-c2ccc([C@@H]3[C@H]4CN(C(=O)c5ccncc5)CCCCN4[C@H]3CO)cc2)c1` [compound 316], for which the half-maximal inhibitory concentration (IC50) in experiment [1] is more than 10 µM. Also, in experiment [2] (setting [4]), the “Average Z-score” value is reported as −16.96.
Consider `Cc1ccccc1-c1ccc([C@H]2[C@@H](CO)N3CCCCN(C(=O)c4cccnc4)C[C@H]23)cc1` [compound 397], for which the “Imax (%) Proteolysis (inhibition maximum)” value in experiment [1] (setting [5]) came to 70%. For the same molecule, the “Average Z-score” value in experiment [2] (setting [4]) is recorded as −11.37.
For `Cc1ccccc1-c1ccc(C2C3CN(C(=O)C4CCOCC4)CC2N3)cc1` (stereo not drawn) [C7], in experiment [1], the IC50 came out at 2.5 µM. Further, the Emax in experiment [1] (setting [5]) was found to be 80%. Besides, in experiment [2] (setting [4]), the “Average Z-score” value is −7.7.
Regarding `Cc1ccccc1-c1ccc([C@@H]2[C@H](CO)N3CCCCN(C(=O)NC4CCCC4)C[C@@H]23)cc1` [compound 932], in experiment [1], the IC50 is more than 20 µM. Further, the Emax in experiment [1] (setting [5]) is 90%. Also, the “Average Z-score” value in experiment [2] (setting [4]) is on record as −19.01.
On to `Cc1cccc(-c2ccc([C@@H]3[C@@H](CO)N4C(=O)CN(C(=O)NC5CCCCC5)C[C@@H]34)cc2)c1` [compound 904], for which, in experiment [1], the IC50 is more than 5 µM. Further, in experiment [2] (setting [4]), the “Average Z-score” value is listed as −16.59.
For `Cc1ccccc1-c1ccc([C@H]2[C@@H](CO)N3CCCCN(C(=O)c4cccnc4)C[C@H]23)cc1` [compound 106], in experiment [1] (setting [5]), the Emax was 80%. For the same molecule, in experiment [2] (setting [4]), the “Average Z-score” value was −16.48.
With `COc1ccccc1C#Cc1ccc([C@H]2[C@H](CO)N3CCCCN(C(=O)C4CCC4)C[C@@H]23)cc1` [compound 180], in experiment [1] (setting [5]), the Emax came to 80%. Also, in experiment [2] (setting [6]), the “Average Z-score” value is reported as −12.26*.
For `Cc1ccccc1-c1ccc([C@H]2[C@H](CO)N3C(=O)CN(S(C)(=O)=O)C[C@@H]23)cc1` [compound 061], in experiment [1], the half-inhibitory concentration (IC50) is more than 100 µM. Moreover, in experiment [2] (setting [4]), the “Average Z-score” value is listed as −1.36.
Take `Cc1ccccc1-c1ccc([C@H]2[C@@H](CO)N3CCCCN(C(=O)NC4CCCC4)C[C@H]23)cc1` [compound 255]: the Emax in experiment [1] (setting [5]) was 50%. Besides, the “Average Z-score” value in experiment [2] (setting [4]) was −17.33.
For the molecule `CCCNC(=O)N1CC(=O)N2[C@H](CO)[C@@H](c3ccc(-c4cccc(C)c4)cc3)[C@@H]2C1` [compound 779], the IC50 in experiment [1] amounted to 0.8 µM. The Emax in experiment [1] (setting [5]) was 60%. The “Average Z-score” value in experiment [2] (setting [4]) is recorded as −22.36. In addition, the “initial rates of glucagon cleavage” value in experiment [3] is recorded as “reduced”.
In the case of `Cc1cccc(-c2ccc([C@@H]3[C@H]4CN(C(=O)c5cccnc5)CC(=O)N4[C@H]3CO)cc2)c1` [compound 838], in experiment [1] (setting [5]), the Emax came to 80%. Moreover, the “Average Z-score” value in experiment [2] (setting [4]) is listed as −17.68.
Consider `COc1ccccc1NC(=O)N1CCCCN2[C@H](CO)[C@@H](c3ccc(-c4cccc(C)c4)cc3)[C@@H]2C1` [compound 154], for which the IC50 in experiment [1] was more than 10 µM. Also, the Emax in experiment [1] (setting [5]) turned out to be 20%. Moreover, the “Average Z-score” value in experiment [2] (setting [4]) is given as −2.84.
As to `Cc1ccccc1-c1ccc(C2C3CN(C(=O)c4cnccn4)CC2N3)cc1` (stereo not drawn) [C1], the IC50 in experiment [1] stood at 2 µM. For the same molecule, in experiment [1] (setting [5]), the Emax came out at 70%. Besides, in experiment [2] (setting [4]), the “Average Z-score” value was −20.0.
In the same order, the values of `COc1ccccc1-c1ccc([C@@H]2[C@@H](C#N)N(C(=O)c3cccnc3)[C@@H]2CO)cc1` [D9] are 7.5 µM, 60% and −12.03.
